According to US20250360149A1, “GPCR INHIBITORS AND USES THEREOF” (GPCR Therapeutics, Inc., priority 2022, published 2025):

Assays:
C57BL/6J or Balb/c mice [1] = settings: 5 mg/kg SC, literature; cited from earlier work
[2] = target: CXCR4 and B2AR heteromers (Homo sapiens, UniProt P61073); settings: MDA-MB-231 cells
C57BL/6J or Balb/c mice [3] = experiment: In vivo mobilization, CBC analysis of WBC (Example 11); settings: for fold increase in WBCs compared to the vehicle: PB 2 h after GPC-100 30 mg/kg IV, 1 h after AMD3100 5 mg/kg SC, 12 h after G-CSF 0.1 mg/kg SC BID x5, propranolol 20 mg/kg IP QD x7
C57/B16 mice = experiment: Complete blood count, beta blockers +/- GPC100, single agents and combinations (Examples 6-7); settings: for effect of 7-day beta blocker on GPC100-induced mobilization: GPC100 30 mg/kg IV on day 7
C57/BL6 mice = experiment: Complete blood count in peripheral blood, Example 1 mobilization studies; settings: 7-day treatment alone, 20 mg/kg IP
[4] = test system: LSK cells (Lineage−Sca−1+c−Kit+); experiment: Flow cytometry of LSK cells in peripheral blood; settings: mouse, in vivo

Chain of CXCR4 and B2AR heteromers (P61073 whole entry, one chain of several): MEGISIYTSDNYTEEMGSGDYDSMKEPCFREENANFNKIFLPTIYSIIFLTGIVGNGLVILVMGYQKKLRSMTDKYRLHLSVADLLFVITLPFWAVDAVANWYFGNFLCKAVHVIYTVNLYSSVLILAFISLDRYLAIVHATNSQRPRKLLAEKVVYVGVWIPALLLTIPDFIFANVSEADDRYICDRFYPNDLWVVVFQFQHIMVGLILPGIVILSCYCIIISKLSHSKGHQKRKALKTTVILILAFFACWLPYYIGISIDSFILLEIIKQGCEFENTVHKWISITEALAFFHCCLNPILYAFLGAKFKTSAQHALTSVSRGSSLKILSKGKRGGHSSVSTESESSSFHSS

## c1cc(CN2CCCNCCNCCCNCC2)ccc1CN1CCCNCCNCCCNCC1 [AMD3100, Plerixafor]
C57BL/6J or Balb/c mice [1]
  time of peak mobilization: 1 h
[2]
  Inhibition of Ca2+ flux enhanced by co-treatment with Pro (in words): not
C57BL/6J or Balb/c mice [3]; single administration
  changes in platelet count, hemoglobin or other red blood cell parameters: No changes

## CC(C)(C)NCC(O)COc1cccc2c1CC(O)C(O)C2 (centres unmarked) [Nadolol]
C57/B16 mice
  effect of 7-day beta blocker on GPC100-induced mobilization: enhanced

## Cc1ccc(OCC(O)C(C)NC(C)C)c2c1CCC2 (centres unmarked) [ICI-118,551]
C57/B16 mice; seven-day IP, propranolol 20 mg/kg, nadolol 5 mg/kg, ICI-118,551 5 mg/kg
  effect on total blood cell counts when administered alone: did not affect

## CC(C)NCC(O)COc1cccc2ccccc12 (centres unmarked) [Propranolol]
C57/B16 mice
  effect of 7-day beta blocker on GPC100-induced mobilization: enhanced
C57/B16 mice; propranolol 20 mg/kg IP D1-D7, AMD3100 5 mg/kg SC D7
  effect on AMD3100-induced mobilization of lymphocytes: slightly increase
C57/BL6 mice
  Hemoglobin: 13.15 ± 0.8 g/dL
  Lymphocytes: 4.7 ± 1.3 10^3/uL
  Monocytes: 0.2 ± 0.09 10^3/uL
  Neutrophils: 0.42 ± 0.3 10^3/uL
  Platelets: 266 ± 52 10^3/uL
  RBC: 9.8 ± 0.36 10^6/uL
C57/BL6 mice; vehicle IV on day 7
  WBC: 5.4 ± 1.7 10^3/uL
[4]
  effect of propranolol on LSK cell mobilization by GPC-100: enhanced
C57BL/6J or Balb/c mice [3]; 20 mg/kg IP over 7 days
  effect of propranolol pretreatment on GPC-100 induced mobilization: significantly improved
C57BL/6J or Balb/c mice [3]
  fold increase in WBCs compared to the vehicle: 4.1 fold

B1: G-CSF: Recombinant murine G-CSF, granulocyte-colony stimulating factor (protein, UniProt P09920 31-208, looked up)
Granulocyte …: VPLVTVSALPPSLPLPRSFLLKSLEQVRKIQASGSVLLEQLCATYKLCHPEELVLLGHSLGIPKASLSGCSSQALQQTQCLSQLHSGLCLYQGLLQALSGISPALAPTLDLLQLDVANFATTIWQQMENLGVAPTVQPTQSAMPAFTSAFQRRAGGVLAISYLQGFLETARLALHHLA
C57/B16 mice; single agent
  WBC mobilization, single agent comparison: Maximum mobilization
  neutrophil mobilization, single agent comparison: more neutrophils than GPC100 or AMD3100
C57BL/6J or Balb/c mice [3]
  fold increase in WBCs compared to the vehicle: 4.5 fold
